{"source": "patent US20210038732A1", "about": "“ANTICANCER MICRORNA AND LIPID FORMULATIONS THEREOF” (INTERNA TECHNOLOGIES B.V., priority 2018, published 2021)", "key": {"[1]": {"tested_on": "4T1 mouse tumor cells", "assay": "4T1 re-challenge of previously treated mice, with or without T-cell depletion (Example 4.11)", "format": "in vivo", "source_text": "In all cases, monoclonal antibodies were delivered to mice by intraperitoneal injection in 200p1 phosphate-buffered saline. For depletion and neutralization experiments, CD4 (clone GK1.5) and CD8 (clone 2.43) antibodies were used simultaneously. Depletion or neutralization was commenced a week before tumor cell inoculation. For CD4+ and CD8+ T-cell depletion, […] of the indicated antibody was delivered on a QOD×3 schedule in the first week and then a Q3D schedule for 3 more weeks. Depletion of the desired T-cell population(s) was confirmed on whole blood by flow cytometry (data not shown). 100 μL whole blood was drawn per animal on day 0 and day 14 post tumor cell inoculation (day 0=24h post QOD×3, Day 14: 24h post QOD×3+Q3D for 2 weeks). Then mixed with the antibodies. After vortexing gently, the mix was incubated for 30 minutes in the dark at room temperature (RT). 2 ml of 1× FACS lysing buffer was added to the solution and incubated for 10 min at RT. Then the solution mix was centrifuged for 5 min and the supernatant was removed. Finally, the cells were resuspended in 150p1 of staining buffer and analyzed on a cytometer. All flow cytometry antibodies (anti-CD45-PerCP-cy55 (clone: 30-F11), anti-CD3-FITC (clone: 17A2) anti-CD4-APC (clone: RM4-4), anti-CD8-PE (clone: 53-6.7) were purchased from Biolegend except anti-CD3 from BD Biosciences. (QOD×3: every other day for 3 days, Q3D: every 3 days (Monday-Thursday)).\nTo investigate the T-cell mediated long-term immunity in miRNA-193a treated mice against 4T1 cancer cells, a new study with similar conditions to example 4.4 was performed. 5 days post-tumor inoculation, mice were randomized into 2 groups and received a similar treatment and dosing regimen as in example 4.4 (see Table 9, groups 1-2 only). After surgical removal of primary tumors when the group mean tumor volume reached 800 mm3, treatments were resumed and continued until day 58. […]"}, "[2]": {"tested_on": "H1299", "assay": "Caspase 3/7 apoptosis assay", "format": "cell-based", "details": "10 nM, normalized to mock", "procedure": "(§1) Depending on cancer cell type 3000-6000 cells were seeded in a 96 well plate. After cells attached, they were transfected with different concentrations of miRNA-193a and apoptosis induction was measured at different time points. This assay was performed using Promega kit. 100 uL of caspase reagent was added to 100 uL of media in each well in 96-well plate and incubated for 2 hours in the dark at room temperature. The luminescent signal was read on a luminescent plate reader.\n(§2) Different biological effects of miRNA-193a-3p have been tested in various cancer cell lines (see Table 13). For this, various cells were treated with miRNA-193a at different concentrations (1, 3, 10 nM). For all experiments controls (untreated, mock and scrambled) were measured. All assays were performed at 24h, 48h and 72h time points. Data shown in Table 13 are the results for miRNA-193a at 10 nM concentration at indicated time points. All the results have been quantified and normalized to the mock control.\n(§3) miRNA-193a treatment in various cancer cell lines decreased cell viability over time as measured by either an MTS assay or by cell count. It enhanced apoptosis induction over time as measured by a caspase 3/7 apoptosis assay. […] It is of note that due to intrinsic characteristics and gene mutation status of each cell line, performing one method to detect apoptosis is not always ideal for all cell lines."}, "[3]": {"tested_on": "HCT116", "assay": "Caspase 3/7 apoptosis assay", "format": "cell-based", "details": "10 nM, normalized to mock", "procedure": "as §1, §2, §3"}, "[4]": {"tested_on": "H1975", "assay": "Caspase 3/7 apoptosis assay", "format": "cell-based", "details": "10 nM, normalized to mock", "procedure": "as §1, §2, §3"}, "[5]": {"tested_on": "Panc-1", "assay": "Caspase 3/7 apoptosis assay", "format": "cell-based", "details": "10 nM, normalized to mock", "procedure": "as §1, §2, §3"}, "[6]": {"tested_on": "EMT6", "assay": "Caspase 3/7 apoptosis assay", "format": "cell-based", "details": "10 nM, normalized to mock", "procedure": "as §1, §2, §3"}, "[7]": {"tested_on": "A2058 melanoma cells", "assay": "Adenosine assay", "format": "cell-based, human", "details": "miRNA-193a-3p at 10 nM, vs untreated, mock, scrambled", "procedure": "4000 A2058 melanoma cells were seeded per well in a 96 well plate. 4h after seeding, cells were transfected with different concentrations of miRNA-193a-3p, scrambled control, siNT5E and siPool as control. 24h post transfection the cells were treated with 500 μM AMP and adenosine measurement was performed 24h post-treatment following steps from adenosine measurement kit (BioVision)."}, "[8]": {"tested_on": "4T1 cells", "assay": "Adoptive CD3+ T-cell transfer from survivors into naive mice, 4T1 challenge", "format": "in vivo", "details": "1×107 CD3+ T-cells iv; followed about 5 weeks; vs control naïve mice", "procedure": "Adoptive transfer of CD3+ T cells form the survivor mice into naive mice was performed after spleens, auxiliary, brachial, and inguinal lymph nodes excision. Cell suspension were made from the indicated organs and pooled. Then, CD3+ T-cells were isolated from the pool using magnetic beads according the manufacturer's protocol (Miltenyi Biotech). 1×107 CD3+ T-cells per mouse were injected intravenously.\nOn day 133 post-tumor cell inoculation CD3+ T-cells were recovered from the spleens, auxiliary, brachial, and inguinal lymph nodes of the surviving animals. T-cells were pooled and transferred i.v. to 6 naïve age-matched mice (1×107 CD3+ Tcells per mouse at day 0). One day post-T-cell transfer, animals were re-challenged with 3×10^5 4T1 cells in PBS (0.1 mL/mouse) in the right mammary fat pad of 6 naive age-matched mice (as control group) and the 6 mice that received CD3+ T-cells. Tumor growth was followed for about 5 weeks."}}}
{"substance": "miRNA-193a: duplex of the miRNA-193a-3p of SEQ ID NO: 218 (mimic, sense) with antisense strand SEQ ID NO: 219; naked in vitro, formulated in vivo (sense UGGGACUUUGUAGGCCAGUUTT; antisense AACUGGCCUACAAAGUCCCAGU; chemistry not given here; listed as Homo sapiens)", "values": [{"measurement": "4T1 tumor growth after second re-challenge", "setting": "[1]; previously treated mice depleted for T cells (anti-CD4 + anti-CD8)", "result": "resulted in 4T1 tumor growth"}, {"measurement": "4T1 tumor growth after second re-challenge", "setting": "[1]; previously treated mice not depleted for T cells", "result": "did not show a palpable 4T1 tumor"}, {"measurement": "Tumor re-growth after 4T1 re-challenge", "setting": "[1]; re-challenge day 76, followed up to 3 weeks, vs naïve mice", "result": "did not develop any palpable tumor"}, {"measurement": "Apoptosis (48/72 h)", "setting": "[2]", "result": "↑ (Induction < 2x)"}, {"measurement": "Apoptosis (48/72 h)", "setting": "[3]", "result": "↑↑ (Induction > 2x)"}, {"measurement": "Apoptosis (48/72 h)", "setting": "[4]", "result": "↑ (Induction < 2x)"}, {"measurement": "Apoptosis (48/72 h)", "setting": "[5]", "result": "↑↑ (Induction > 2x)"}, {"measurement": "Apoptosis (48/72 h)", "setting": "[6]", "result": "↑↑ (Induction > 2x)"}, {"measurement": "Adenosine generation", "setting": "[7]", "result": "reduces"}, {"measurement": "4T1 tumor growth in naive mice that received CD3+ T-cells from treated survivors", "setting": "[8]", "result": "did not show any 4T1 tumor growth"}]}
